Results: patent US7977322B2 (Vertex Pharmaceuticals Incorporated, priority 2004, dated 2011)

Target: T1, ΔF508-CFTR (Homo sapiens, UniProt P13569, DEL508-508)
T1 construct: expressed in transfected cells
Assay: Membrane potential optical (FRET/VIPR) assay, identification of correction compounds
Assay type: cell-based
Conditions: Table 3, assay not given; for Emax: read-out: % Activity / % Efficacy (relative efficacy)
From the text: I) Membrane Potential Optical Methods for Assaying ΔF508-CFTR Modulation Properties of Compounds
These voltage sensitive assays are based on the change in fluorescence resonant energy transfer (FRET) between the membrane-soluble, voltage-sensitive dye, DiSBAC2(3), and a fluorescent phospholipid, CC2-DMPE, which is attached to the outer leaflet of the plasma membrane and acts as a FRET donor. Changes in membrane potential (Vm) cause the negatively charged DiSBAC2(3) to redistribute across the plasma membrane and the amount of energy transfer from CC2-DMPE changes accordingly. The changes in fluorescence emission were monitored using VIPR™ II, which is an integrated liquid handler and fluorescent detector designed to conduct cell-based screens in 96- or 384-well microtiter plates.
Identification of Correction Compounds
To identify small molecules that correct the trafficking defect associated with ΔF508-CFTR; a single-addition HTS assay format was developed. The cells were incubated in serum-free medium for 16 hrs at 37° C. in the presence or absence (negative control) of test compound. As a positive control, cells plated in 384-well plates were incubated for 16 hrs at 27° C. to “temperature-correct” ΔF508-CFTR. The cells were subsequently rinsed 3× with Krebs Ringers solution and loaded with the voltage-sensitive dyes. To activate ΔF508-CFTR, 10 μM forskolin and the CFTR potentiator, genistein (20 μM), were added along with Cl^− free medium to each well. The addition of Cl^− free medium promoted Cl^− efflux in response to ΔF508-CFTR activation and the resulting membrane depolarization was optically monitored using the FRET-based voltage-sensor dyes.
• Bath Solution #1: (in mM) NaCl 160, KCl 4.5, CaCl2 2, MgCl2 1, HEPES 10, pH 7.4 with NaOH. • Chloride-free bath solution: Chloride salts in Bath Solution #1 are substituted with gluconate salts. • CC2-DMPE: Prepared as a 10 mM stock solution in DMSO and stored at −20° C. • DiSBAC2(3): Prepared as a 10 mM stock in DMSO and stored at −20° C.
NIH3T3 mouse fibroblasts stably expressing ΔF508-CFTR are used for optical measurements of membrane potential. The cells are maintained at 37° C. in 5% CO2 and 90% humidity in Dulbecco's modified Eagle's medium supplemented with 2 mM glutamine, 10% fetal bovine serum, 1×NEAA, β-ME, 1×pen/strep, and 25 mM HEPES in 175 cm^2 culture flasks. For all optical assays, the cells were seeded at 30,000/well in 384-well matrigel-coated plates and cultured for 2 hrs at 37° C. before culturing at 27° C. for 24 hrs. for the potentiator assay.

T1 sequence (P13569 with tags, fused parts or gaps DEL508-508): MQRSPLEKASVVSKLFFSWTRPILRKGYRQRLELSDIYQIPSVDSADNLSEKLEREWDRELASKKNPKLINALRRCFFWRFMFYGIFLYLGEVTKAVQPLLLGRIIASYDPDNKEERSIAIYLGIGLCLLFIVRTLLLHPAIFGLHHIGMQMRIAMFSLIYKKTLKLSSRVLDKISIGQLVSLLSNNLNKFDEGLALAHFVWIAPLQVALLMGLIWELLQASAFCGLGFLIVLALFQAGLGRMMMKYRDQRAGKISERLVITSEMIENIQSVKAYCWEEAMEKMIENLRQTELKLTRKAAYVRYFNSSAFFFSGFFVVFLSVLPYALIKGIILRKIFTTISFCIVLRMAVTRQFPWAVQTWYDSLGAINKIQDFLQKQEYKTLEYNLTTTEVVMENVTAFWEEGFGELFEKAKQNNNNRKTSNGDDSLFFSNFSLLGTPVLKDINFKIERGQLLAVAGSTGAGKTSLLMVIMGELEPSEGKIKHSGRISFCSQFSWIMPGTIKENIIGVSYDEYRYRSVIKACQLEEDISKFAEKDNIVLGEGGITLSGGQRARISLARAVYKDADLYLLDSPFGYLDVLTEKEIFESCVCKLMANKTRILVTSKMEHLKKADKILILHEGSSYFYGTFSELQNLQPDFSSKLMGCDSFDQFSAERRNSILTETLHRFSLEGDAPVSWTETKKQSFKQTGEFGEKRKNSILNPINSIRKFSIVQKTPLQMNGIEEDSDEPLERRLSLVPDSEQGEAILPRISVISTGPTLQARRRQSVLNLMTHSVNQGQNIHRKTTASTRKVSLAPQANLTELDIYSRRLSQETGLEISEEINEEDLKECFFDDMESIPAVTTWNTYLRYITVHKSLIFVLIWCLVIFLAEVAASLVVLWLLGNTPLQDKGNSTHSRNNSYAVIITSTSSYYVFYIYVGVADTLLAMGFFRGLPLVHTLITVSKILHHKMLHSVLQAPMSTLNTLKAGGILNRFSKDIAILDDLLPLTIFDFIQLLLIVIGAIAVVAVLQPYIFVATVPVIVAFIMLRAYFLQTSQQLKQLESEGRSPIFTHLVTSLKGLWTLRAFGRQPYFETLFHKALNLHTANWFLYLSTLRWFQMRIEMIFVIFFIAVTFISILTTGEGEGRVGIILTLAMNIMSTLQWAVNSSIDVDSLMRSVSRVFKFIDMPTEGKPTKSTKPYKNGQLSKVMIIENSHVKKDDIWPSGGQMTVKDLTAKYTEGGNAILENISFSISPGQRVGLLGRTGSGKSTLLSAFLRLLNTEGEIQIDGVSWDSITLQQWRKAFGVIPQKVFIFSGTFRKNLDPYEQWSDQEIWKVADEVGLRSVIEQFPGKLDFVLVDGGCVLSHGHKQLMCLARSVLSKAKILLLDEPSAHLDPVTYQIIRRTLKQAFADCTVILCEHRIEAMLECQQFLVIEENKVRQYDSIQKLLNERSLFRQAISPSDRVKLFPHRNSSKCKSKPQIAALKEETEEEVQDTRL

| EC50 | Emax | % Activity / % Efficacy (relative efficacy) | Structure (SMILES) |
| --- | --- | --- | --- |
| < 10 µM | > 100% | – | COc1ccc(C2(C(=O)Nc3ncc(Cc4ccc(Cl)cc4)s3)CC2)cc1 [Example 13] |
| < 10 µM | > 100% | – | COc1ccc(C2(C(=O)Nc3nc(-c4ccccc4)cs3)CC2)cc1 [Example 17] |
| < 10 µM | > 100% | – | O=C(Nc1ncc(Cc2ccccc2Cl)s1)C1(c2ccc(F)cc2)CCCC1 [Example 26] |
| < 10 µM | > 100% | – | COc1ccccc1Cc1cnc(NC(=O)C2(c3ccc(Cl)cc3)CC2)s1 [Example 32] |
| < 10 µM | 25 to 100% | – | COc1ccc(C2(C(=O)Nc3ncc(Sc4ccccc4Cl)s3)CC2)cc1 [Example 36] |
| < 10 µM | > 100% | – | COc1ccc(C2(C(=O)Nc3ncc(Sc4cccc(Cl)c4)s3)CC2)cc1 [Example 37] |
| < 10 µM | > 100% | – | COc1ccc(C2(C(=O)Nc3ncc(C(=O)c4ccccc4Cl)s3)CC2)cc1 [Example 44] |
| < 10 µM | 25 to 100% | – | COc1ccc(C2(C(=O)Nc3nc4ccc(Cl)cc4s3)CC2)cc1 [Example 47] |
| < 10 µM | – | +++ (“+++” means>100%) | COc1ccc(C2(C(=O)Nc3ncc(Cc4ccccc4Cl)s3)CC2)cc1OC [Example 55] |
| < 10 µM | – | ++ (“++” means between 25% to 100%) | O=C(Nc1ncc(Cc2ccccc2Cl)s1)C1(c2ccc3c(c2)OCO3)CC1 [Example 56] |
| < 10 µM | – | +++ (“+++” means>100%) | COc1ccc(C2(C(=O)Nc3ncc(Cc4ccccc4OC)s3)CCOCC2)cc1 [Example 57] |
| < 10 µM | – | +++ (“+++” means>100%) | COc1ccccc1Cc1cnc(NC(=O)C2(c3ccc(OC)c(OC)c3)CC2)s1 [Example 58] |
| < 10 µM | – | +++ (“+++” means>100%) | COc1ccc(C2(C(=O)Nc3ncc(Cc4ccccc4C#N)s3)CC2)cc1OC [Example 61] |
| 10 to 25 µM | – | ++ (“++” means between 25% to 100%) | N#Cc1ccccc1Cc1cnc(NC(=O)C2(c3ccc4c(c3)OCO4)CC2)s1 [Example 62] |
| < 10 µM | – | +++ (“+++” means>100%) | COc1ccc(C2(C(=O)Nc3ncc(Cc4ccccc4Cl)n3C)CC2)cc1 [Example 63] |
| < 10 µM | – | +++ (“+++” means>100%) | COc1ccc(C2(C(=O)Nc3ncc(C)s3)CC2)cc1 [Example 64] |
| < 10 µM | > 100% | – | COc1ccccc1C1(C(=O)Nc2ncc(Cc3ccccc3Cl)s2)CC1 [Example 65] |
| < 10 µM | – | +++ (“+++” means>100%) | COc1cccc(C2(C(=O)Nc3ncc(Cc4ccccc4Cl)s3)CC2)c1 [Example 66] |
| 25 to 60 µM | – | ++ (“++” means between 25% to 100%) | COc1cccc(C2(C(=O)Nc3ncc(Cc4ccccc4OC)s3)CC2)c1 [Example 67] |
| < 10 µM | 25 to 100% | – | COc1ccccc1C1(C(=O)Nc2ncc(Cc3ccccc3C#N)s2)CC1 [Example 68] |
| < 10 µM | – | +++ (“+++” means>100%) | COc1cccc(C2(C(=O)Nc3ncc(Cc4ccccc4C#N)s3)CC2)c1 [Example 69] |
| < 10 µM | – | ++ (“++” means between 25% to 100%) | COc1ccccc1Cc1cnc(NC(=O)C2(c3ccccc3OC)CC2)s1 [Example 70] |
| 25 to 60 µM | – | ++ (“++” means between 25% to 100%) | COC(=O)Cn1cc(Cc2ccccc2Cl)sc1=NC(=O)C1(c2ccc(OC)cc2)CC1 [Example 72] |
| 25 to 60 µM | < 25% | – | CCN(CC)CCn1cc(Cc2ccccc2Cl)s/c1=N/C(=O)C1(c2ccc(OC)cc2)CC1 [Example 73] |
| 25 to 60 µM | – | ++ (“++” means between 25% to 100%) | CCN(CC)CCn1cc(Cc2ccccc2Cl)s/c1=N/C(=O)C1(c2ccc(OC)cc2)CC1 [Example 74] |

| EC50 | Emax | % Activity / % Efficacy (relative efficacy) | Structure (SMILES) |
| --- | --- | --- | --- |
| 25 to 60 µM | – | ++ (“++” means between 25% to 100%) | CCN(CC)CCN(C(=O)C1(c2ccc(OC)cc2)CC1)c1ncc(Cc2ccccc2Cl)s1 [Example 75] |
| < 10 µM | – | +++ (“+++” means>100%) | COc1ccc(C2(C(=O)Nc3ncc(Cc4ccccc4C(N)=O)s3)CC2)cc1 [Example 76] |
| < 10 µM | – | +++ (“+++” means>100%) | COc1ccc(C2(C(=O)Nc3nc(-c4ccc(C)cc4)cs3)CC2)cc1 [Example 77] |
| < 10 µM | – | +++ (“+++” means>100%) | COc1ccc(C2(C(=O)Nc3nc(-c4ccc(Cl)cc4)cs3)CC2)cc1 [Example 78] |
| < 10 µM | – | +++ (“+++” means>100%) | COc1ccc(-c2csc(NC(=O)C3(c4ccc(OC)cc4)CC3)n2)cc1 [Example 79] |
| < 10 µM | – | +++ (“+++” means>100%) | O=C(Nc1nc(-c2ccccc2)cs1)C1(c2ccc3c(c2)OCO3)CC1 [Example 80] |
| < 10 µM | – | +++ (“+++” means>100%) | O=C(Nc1nc(-c2ccccc2Cl)cs1)C1(c2ccc3c(c2)OCO3)CC1 [Example 81] |
| < 10 µM | – | +++ (“+++” means>100%) | Cc1ccc(-c2csc(NC(=O)C3(c4ccc5c(c4)OCO5)CC3)n2)cc1 [Example 82] |
| < 10 µM | – | +++ (“+++” means>100%) | Cc1cnc(NC(=O)C2(c3ccc4c(c3)OCO4)CC2)s1 [Example 85] |
| < 10 µM | – | +++ (“+++” means>100%) | O=C(Nc1ncc(-c2ccccc2)s1)C1(c2ccc3c(c2)OCO3)CC1 [Example 86] |
| < 10 µM | – | +++ (“+++” means>100%) | COc1ccc(C2(C(=O)Nc3ncc([S+]([O-])c4ccccc4OC)s3)CC2)cc1 (stereo not shown) [Example 87] |
| < 10 µM | – | +++ (“+++” means>100%) | COc1ccc(C2(C(=O)Nc3ncc(S(=O)(=O)c4ccccc4OC)s3)CC2)cc1 [Example 88] |
| < 10 µM | > 100% | – | COc1ccc(C2(C(=O)Nc3ncc(Cc4cccc(F)c4Cl)s3)CC2)cc1 [Example 89] |
| < 10 µM | – | ++ (“++” means between 25% to 100%) | COc1ccc(C2(C(=O)Nc3ncc(Cc4cc(F)ccc4Cl)s3)CC2)cc1 [Example 90] |
| 10 to 25 µM | – | ++ (“++” means between 25% to 100%) | NC(=O)C1(C(=O)Nc2ncc(Cc3ccccc3Cl)s2)CC1 [Example 91] |
| < 10 µM | – | +++ (“+++” means>100%) | O=C(Nc1ncc(Oc2ccccc2Cl)s1)C1(c2ccc3c(c2)OCO3)CC1 [Example 93] |
| < 10 µM | – | +++ (“+++” means>100%) | COc1ccccc1Oc1cnc(NC(=O)C2(c3ccc4c(c3)OCO4)CC2)s1 [Example 94] |
| < 10 µM | 25 to 100% | – | COc1ccc(C2(C(=O)Nc3ncc(Sc4ccccc4N)s3)CC2)cc1 [Example 95] |
| < 10 µM | – | ++ (“++” means between 25% to 100%) | COc1ccc(C2(C(=O)Nc3ncc(Sc4ccc(N)cc4)s3)CC2)cc1 [Example 96] |
| < 10 µM | – | +++ (“+++” means>100%) | COc1ccc(C2(C(=O)Nc3ncc(Sc4cccc(C(=O)O)c4)s3)CC2)cc1 [Example 97] |
| < 10 µM | – | +++ (“+++” means>100%) | Nc1ccccc1Sc1cnc(NC(=O)C2(c3ccc4c(c3)OCO4)CC2)s1 [Example 98] |
| < 10 µM | – | +++ (“+++” means>100%) | COc1ccccc1Sc1cnc(NC(=O)C2(c3ccc4c(c3)OCO4)CC2)s1 [Example 99] |
| < 10 µM | – | ++ (“++” means between 25% to 100%) | Nc1ccc(Sc2cnc(NC(=O)C3(c4ccc5c(c4)OCO5)CC3)s2)cc1 [Example 100] |
| < 10 µM | – | +++ (“+++” means>100%) | O=C(O)c1ccccc1Sc1cnc(NC(=O)C2(c3ccc4c(c3)OCO4)CC2)s1 [Example 101] |
| < 10 µM | > 100% | – | O=C(Nc1ncc(Sc2cccc(Cl)c2)s1)C1(c2ccc3c(c2)OCO3)CC1 [Example 102] |
